Data as given in publication PMC4351204, “Amyloid Precursor Protein Mediated Changes in Intestinal Epithelial Phenotype In Vitro” (PLoS ONE, 2015).

Tests used:
Caco-2 cells [1] = assay: Western blotting of protein levels in stimulated Caco-2 cells; type: cell-based, human; settings: western blot, 3 samples
Procedure: Following stimulation, cells were lysed using ice cold radioimmunoprecipitation assay (RIPA) buffer (20mM Tris, pH 7.4, 150mM NaCl, 1mM Na3VO4, 10mM NaF, 1mM EDTA, 1mM EGTA, 0.2mM phenylmethylsulfonyl fluoride, 1% Triton, 0.1% SDS, and 0.5% deoxycholate) with protease inhibitors (AEBSF 1mM, Aprotinin 0.8μM, Leupeptin 21μM, Bestatin 36μM, Pepstatin A 15μM, E-64 14μM) and 50U/mL DNAse1(Amresco Inc, Solon, OH, USA). To remove insoluble material cell lysates were sonicated and centrifuged (14,000 rpm, 4°C, 10 min). The Bradford method was used to quantify protein concentrations. Proteins were resolved by 7 or 10% sodium dodecyl sulfate-polyacrylamide gel electrophoresis (SDS-PAGE) and transferred to polyvinylidene difluoride membranes (PVDF) for western blotting using anti-APP (Y188), CD36, occludin, LFABP, FATP4, pSrc, cSrc, and GAPDH (loading control) antibodies. Antibody binding was detected with enhanced chemiluminescence (GE Healthcare, Piscataway, NJ). In some instances, blots were stripped in […], 10 min, 25°C, for reprobing. Western blots were quantified using Adobe Photoshop software. Optical densities of bands were normalized against their respective loading controls and averaged (+/-SD).
Fig 5 Aβ, APP, and CD36 stimulations selectively altered protein levels in Caco-2 cells.

HepG2 hepatocyte line = test system: HepG2 hepatocyte line; set-up: method as in PMID 8898096; settings: Aβ 1–40 treatment of human HepG2 hepatocyte line; cited from earlier work
Caco-2 cells [2] = assay: Cholesterol Uptake Cell-Based Assay (NBD Cholesterol); set-up: species or system human; settings: 40 min; for Cholesterol uptake: 8 samples
Procedure: Cholesterol was measured following the protocol provided in the Cholesterol Uptake Cell-Based Assay Kit from Cayman Chemical Company (Ann Arbor, Michigan USA). […] At the end of treatment, the plates were aspirated and cell-based assay buffer was added to each well and NBD Cholesterol uptake was quantified using a fluorescent plate reader (480 nm excitation and 520 nm emission).
Fig 4 Aβ and 22C11 agonist decreased cholesterol uptake whereas the sAPP-derived peptide and SM-ϕ stimulated increased cholesterol uptake by Caco-2 cells. […] Representative data from 3 independent experiments are shown.

Caco-2 cells [3] = assay: Cytokine ELISAs (IL-8, MCP-1, MDC, IL-6, TNFα) of media from stimulated Caco-2 cells; type: cell-based, human; settings: ELISA of media, normalized to protein, 6 samples
Caco-2 cells [4] = assay: Aβ uptake assay with FITC labeled Aβ 1–40; type: in vitro ADME, human
Procedure: FITC labeled Aβ 1–40 was prepared according to the manufacturer’s protocol (rPeptide, Bogart, GA, USA). 500nM of the peptide was added to confluent cells in serum free DMEM/F12 for 4 hours in the absence or presence of 10ng/mL LPS. The media was then removed and extracellular peptide signal was quenched by rinsing cells with 0.25% trypan blue dissolved in PBS. The trypan blue incubation served to quench FITC-Aβ signal from any peptide that was associated with the extracellular plasma membrane surface or with the tissue culture plastic of the wells. Intracellular Aβ signal was then quantified using a fluorescent plate reader (480 nm excitation and 520 nm emission).
(§1) Fig 2 Caco-2 cells secreted and took up Aβ. […] The cells were rinsed with trypan blue to quench extracellular signal from FITC-Aβ on the cell surface or surface of the tissue culture dish and intracellular Aβ fluorescence was measured with a fluorescent plate reader (480 nm excitation and 520 nm emission) (B).

Caco-2 cells [5] = assay: Aβ 1–40 and Aβ 1–42 ELISA of media from stimulated Caco-2 cells (Aβ secretion); type: cell-based, human; settings: overnight stimulation in serum free DMEM/F12; 10ng/mL LPS or 1μg/mL 22C11; 3 experiments in a replicate of 8
Procedure: Caco-2 cells were purchased from ATCC (Manassas, VA, USA). These are an epithelial-like cell line derived from a colorectal adenocarcinoma from a person. Caco-2 cells were maintained in DMEM/F12 (Gibco, Life Technologies, Grand Island, NY, USA) supplemented with 10% heat inactivated fetal bovine serum (FBS), 5% donor horse serum (Serum Source International, Charlotte, NC, USA) and antibiotics (0.05mg penicillin/0.05mg streptomycin/0.01mg neomycin/mL) (Sigma-Aldrich, St. Louis, MO, USA). Caco-2 cells were plated and allowed to grow to confluency before removing supplemented media and replacing with serum free DMEM/F12 with or without treatments. Following stimulation, Caco-2 cells were used for ELISA, Aβ uptake, cholesterol assays, immunoprecipitation, and western blot analysis.
The cells were lysed using ice cold RIPA buffer with protease inhibitors and 50U/mL DNAse1. […] The Bradford method was used to quantify protein concentrations for normalization of Aβ in the media and lysates were used for western blotting.
as §1

[6] = set-up: method as in PMID 12897403; settings: in vivo, iv; cited from earlier work

Aβ 1–40: amyloid β 1–40 peptide purchased from rPeptide
protein levels of other proteins examined (besides occludin) (Caco-2 cells [1]; 1μM Aβ 1–40 overnight, compared to control untreated cells): no effect
occludin protein levels (Caco-2 cells [1]; overnight stimulation, 1μg/mL antibody or 1μM Aβ 1–40): decreased
steady state levels of intracellular cholesterol, cholesterol esters, phospholipids, and triacylglycerol (HepG2 hepatocyte line): attenuate
Cholesterol uptake (Caco-2 cells [2]; 100nM, 1μM and 5μM Aβ 1–40 (all three concentrations), 20μg/ml NBD Cholesterol): decreased
Cholesterol uptake, concentration comparison (Caco-2 cells [2]; 1μM Aβ 1–40 compared with 100nM and 5μM): most dramatic effect
IL-6 cytokine secretion (Caco-2 cells [3]; 1μM Aβ 1–40, 24h): increased

fluorescently labeled Aβ 1–40: FITC labeled Aβ 1–40 prepared according to the manufacturer's protocol (rPeptide)
Uptake of fluorescently labeled Aβ 1–40 into cells (intracellular fluorescence) (Caco-2 cells [4]; 500nM FITC Aβ 1–40, 4 hr, confluent Caco-2, serum free DMEM/F12, extracellular signal quenched with 0.25% trypan blue, fluorescent plate reader 480/520 nm, 3 experiments in a replicate of 8): could take up Aβ peptide

lipopolysaccharide [LPS]
Effect on uptake of FITC Aβ 1–40 by Caco-2 cells (Caco-2 cells [4]; 10ng/mL LPS present with 500nM FITC Aβ 1–40, 4 hr): not affected
Aβ secretion (Aβ 1–40 and Aβ 1–42 ELISA) (Caco-2 cells [5]): higher concentrations of Aβ 1–40 compared to Aβ 1–42 released
Cholesterol uptake (Caco-2 cells [2]; 10ng/mL LPS, 20μg/ml NBD Cholesterol in glucose free HBSS): increased
IL-8 cytokine secretion (Caco-2 cells [3]; 10ng/mL LPS, 24h): increased
TNFα cytokine secretion (Caco-2 cells [3]; 10ng/mL LPS, 24h): increased

radiolabeled Aβ 1–40: radiolabeled Aβ 1–40 associated with chylomicron-like particles, literature study
transport into organs [6]: can be transported into diverse organs including adipose tissue and brain
